Assay results taken from patent US8507562B2, “Synthesis of (1)-beta-elemene, (-)-beta-elemenal, (-)-beta-elemenol, (-)-beta-elemene fluoride and their analogues, intermediates, and composition and uses thereof” (HYWE Pharmaceuticals, Inc., priority 2004, dated 2013).
Like-named read-outs stand apart in the source and are kept apart here.

Legend:
[1] = test system: human glioma G-422 (xenograph under skin); assay: Xenograph under skin, injection directly into tumor; format: in vivo, mice; conditions: for Tumor Weight X ± SD: in g (unit assumed)
From the text: The mice were killed after 3 weeks.

[2] = Chronic toxicity study, 28 days i.v.; format: in vivo; conditions: Beagle dogs
A549 lung cancer = assay: MTT survival assay; conditions: 2 × 10^4 cells/ml
Protocol: (§1) The MTT assay is a commonly used method in evaluation of cell survival, based on the ability of viable cells to convert MTT, a soluble tetrazolium salt [3-(4,5-dimethylthuazole-2-yl)-2,5 diphenyl tetrazolium bromide], into an insoluble formazan precipitate, which is quantitated by spectrophotometry following solubilization in dimethyl sulfoxide (DMSO).
In brief, carcinoma cells treated with test articles alone, in 96-well tissue culture dishes were incubated with MTT (2 μg/ml) for 4 h. The cells were then solubilized in 125 μl of DMSO and absorbance readings were taken using a 96-well Opsys MRI Microplate Reader (ThermoLabsystems; Chantilly, Va.). The amount of MTT dye reduction was calculated based on the difference between absorbance at 570 nm and at 630 nm. Cell viability in treated cells was expressed as the amount of dye reduction relative to that of untreated control cells. The wells that contained only medium and 10 μl of MTT were used as blanks for the plate reader.

[3] = test system: Colon Cancer Cells HCT-15
Protocol: Cells were maintained at 37° C. in a humidified atmosphere including 5% CO2. […] Drugs were dissolved in 100% DMSO and then diluted in medium for experiments.

[4] = test system: Colon Cancer Cells HCT-116; assay: MTS cell viability assay; format: cell-based, human; conditions: combinations with Elemene 160 μg/ml, n = 8
human glioma cells = assay: MTT assay, elemene analogs; format: cell-based
Protocol: as §1
The cells were then solubilized in 125 μl of DMSO and absorbance readings were taken using a 96-well Opsys MRI Microplate Reader (ThermoLabsystems; Chantilly, Va.). The amount of MTT dye reduction was calculated based on the difference between absorbance at 570 nm and at 630 nm. Cell viability in treated cells was expressed as the amount of dye reduction relative to that of untreated control cells. The wells which contained only medium and 10 μl of MTT were used as blanks for the plate reader. Three sets of experiments were performed in 8-12 wells for each treatment.

[5] = test system: human prostate cancer PC-3M
[6] = 3H labeled Elemene, intravenous or oral, radioactivity detected in brain; cited from earlier work

(−)-Beta-elemene
Inhibition Rate % ([1]; 15 mg/kg it × 10 qd): 32.00%
Tumor Weight X ± SD ([1]; 15 mg/kg it × 10 qd): 1.53 ± 0.27
Inhibition Rate % ([1]; 30 mg/kg it × 10 qd): 47.11%
Tumor Weight X ± SD ([1]; 30 mg/kg it × 10 qd): 1.19 ± 0.55
Inhibition Rate % ([1]; 60 mg/kg it × 10 qd): 60.89%
Tumor Weight X ± SD ([1]; 60 mg/kg it × 10 qd): 0.88 ± 0.24
side effects, high dose group ([2]; 75 mg/kg/d i.v., 28 days): nausea, vomiting, appetite loss, weight loss, saliva dripping and other side effects
pathology changes, low and medium dose groups ([2]; 15 and 30 mg/kg/d i.v., 28 days): No significant pathology changes related to drug
non-toxic dose ([2]; i.v., 28 days consecutively): 15 mg/kg
Inhibition Rate % (human colon cancer HCT-8; 12.5 mg/kg/time iv × 10 bid): 38.32%
Tumor Weight (g) X ± SD (human colon cancer HCT-8; 12.5 mg/kg/time iv × 10 bid): 0.928 ± 0.07 g
Inhibition Rate % (human colon cancer HCT-8; 12.5 mg/kg/time iv × 10 bid, listed as β-Elemene): 35.10%
Inhibition Rate % (human colon cancer HCT-8; 25 mg/kg/time iv × 10 bid): 49.49%
Tumor Weight (g) X ± SD (human colon cancer HCT-8; 25 mg/kg/time iv × 10 bid): 0.772 ± 0.05 g
Inhibition Rate % (human colon cancer HCT-8; 25 mg/kg/time iv × 10 bid, listed as β-Elemene): 46.01%
Inhibition Rate % (human colon cancer HCT-8; 50 mg/kg/time iv × 10 bid): 57.15%
Tumor Weight (g) X ± SD (human colon cancer HCT-8; 50 mg/kg/time iv × 10 bid): 0.655 ± 0.08 g
Inhibition Rate % (human colon cancer HCT-8; 50 mg/kg/time iv × 10 bid, listed as β-Elemene): 54.20%
IC50 (A549 lung cancer; A549, 24 h): 62.0 µg/mL
IC50 (A549 lung cancer; A549, 48 h): 55.6 µg/mL
IC50 (A549 lung cancer; A549, 72 h): 56.4 µg/mL
IC50 [3]: 194 ± 19.3 µg/mL
IC50 ([4]; HCT-116, 4 hr/24 hr × 2): 203 ± 23.1 µg/mL
IC50 ([4]; HCT-116, 4 hr/24 hr × 3): 165 ± 22.0 µg/mL
IC50 ([4]; HCT-116, 4 hr/24 hr): 230 ± 25.2 µg/mL
IC50 ([4]; HCT-116, 4 hr): 363 ± 45.9 µg/mL
IC50 ([4]; HCT-116, 8 hr): 206 ± 24.2 µg/mL
IC50 ([4]; HCT-116, 12 hr): 201 ± 12.0 µg/mL
IC50 ([4]; HCT-116, 24 hr): 184 ± 26.1 µg/mL
IC50 ([4]; HCT-116, 48 hr): 163 ± 21.8 µg/mL
IC50 ([4]; HCT-116, 72 hr): 157 ± 22.0 µg/mL
IC50 in human glioma cells (human glioma cells; 24 hr): 95.52 µg/mL
IC50 in human glioma cells (human glioma cells; 48 hr): 88.48 µg/mL
IC50 in human glioma cells (human glioma cells; 72 hr): 93.34 µg/mL
Inhibition Rate % ([5]; 12.5 mg/kg/time iv × 10 bid): 27.95%
Tumor Weight (g) X ± SD ([5]; 12.5 mg/kg/time iv × 10 bid): 1.16 ± 0.12 g
Inhibition Rate % ([5]; 25 mg/kg/time iv × 10 bid): 34.78%
Tumor Weight (g) X ± SD ([5]; 25 mg/kg/time iv × 10 bid): 1.05 ± 0.07 g
Inhibition Rate % ([5]; 50 mg/kg/time iv × 10 bid): 46.58%
Tumor Weight (g) X ± SD ([5]; 50 mg/kg/time iv × 10 bid): 0.86 ± 0.12 g
blood brain barrier (BBB) passage [6]: passes the blood brain barrier
